Test results taken from the NIST ThermoML archive (doi:10.1021/je5004719).

Test: xn = mol fraction of the nth substance listed
Conditions: 101 kPa, Liquid; for speed of sound: Sing-around technique in a fixed-path interferometer; for mass density: Vibrating tube method

C1CCOCC1 [tetrahydropyran] + c1ccccc1
Conditions	mass density, 298.15 K [kg/m3]	mass density, 303.15 K [kg/m3]	speed of sound, 298.15 K [m/s]	speed of sound, 303.15 K [m/s]
x1 = 0.0789	874.6	869.25	1298.9	1274
x1 = 0.1324	875.21	869.87	1298.2	1272.5
x1 = 0.1784	875.68	870.35	1297.5	1271.2
x1 = 0.2239	876.1	870.78	1296.6	1269.8
x1 = 0.2876	876.63	871.32	1295.2	1267.9
x1 = 0.3276	876.92	871.63	1294.2	1266.7
x1 = 0.3769	877.26	871.97	1292.9	1265.2
x1 = 0.4285	877.58	872.3	1291.4	1263.6
x1 = 0.4794	877.87	872.59	1289.8	1262
x1 = 0.5598	878.27	872.99	1287.2	1259.6
x1 = 0.6024	878.46	873.17	1285.8	1258.3
x1 = 0.6534	878.66	873.37	1284	1256.9
x1 = 0.7006	878.82	873.53	1282.3	1255.5
x1 = 0.7432	878.95	873.65	1280.7	1254.2
x1 = 0.7943	879.07	873.77	1278.8	1252.8
x1 = 0.8213	879.12	873.83	1277.7	1252
x1 = 0.8763	879.18	873.92	1275.4	1250.4
x1 = 0.9148	879.2	873.96	1273.7	1249.3
